Assay results as given in patent US20020035061A1, “COMPOSITIONS AND METHODS FOR TREATING INFECTIONS USING CATIONIC PEPTIDES ALONE OR IN COMBINATION WITH ANTIBIOTICS” (priority 1996, published 2002).
Read-outs that look alike come from different tables or passages of the source.

How the values were obtained:
Format in all cases: cell-based
[1] = test system: A. calcoaceticus
[2] = test system: E. cloacae
[3] = test system: E. coli
[4] = test system: E. faecalis
[5] = test system: K. pneumoniae
[6] = test system: P. aeruginosa
[7] = test system: S. aureus
[8] = test system: S. epidermidis
[9] = test system: S. maltophilia
[10] = test system: S. marcescens
[11] = test system: bacterial isolates; assay: microbe, parasite or virus in culture; conditions: for Peptide MIC Alone: 2. Ceftriaxone; for FIC: peptide + Ceftriaxone
[12] = test system: inherently resistant microorganisms; assay: microbe, parasite or virus in culture; conditions: P. aeruginosa
[13] = test system: microorganisms with acquired resistance; assay: microbe, parasite or virus in culture; conditions: for Peptide MIC Alone: Ceftriaxone section; for FIC: peptide + Ceftriaxone

Sequence: WRWWKPKWRWPKW [MBI 11J02CN]
- MIC ([1]; A. calcoaceticus AC002): 4 µg/mL
- MIC ([2]; E. cloacae ECL007): 64 µg/mL
- MIC ([3]; E. coli ECO005): 4 µg/mL
- MIC ([4]; E. faecalis EFS001): 4 µg/mL
- MIC ([4]; E. faecalis EFS008): 16 µg/mL
- MIC ([5]; K. pneumoniae KP001): 4 µg/mL
- MIC ([6]; P. aeruginosa PA004): 32 µg/mL
- MIC ([7]; S. aureus SA014): 2 µg/mL
- MIC ([7]; S. aureus SA093): 1 µg/mL
- MIC ([8]; S. epidermidis SE010): 2 µg/mL
- MIC ([9]; S. maltophilia SMA002): 8 µg/mL
- MIC ([10]; S. marcescens SMS003): >128 µg/mL
- Peptide MIC Alone ([11]; A. baumannii ABI005): 8 µg/mL
- Peptide MIC Alone ([11]; B. cepacia BC003): >128 µg/mL
- Peptide MIC Alone ([11]; E. cloacae ECL014): 32 µg/mL
- Peptide MIC Alone ([11]; E. cloacae ECL015): 32 µg/mL
- Peptide MIC Alone ([11]; P. aeruginosa PA008): 64 µg/mL
- Peptide MIC Alone ([11]; P. aeruginosa PA039): 64 µg/mL
- Peptide MIC Alone ([11]; S. aureus SA025 MRSA): 2 µg/mL
- Peptide MIC Alone ([11]; S. epidermidis SE012): 4 µg/mL
- Peptide MIC Alone ([11]; S. epidermidis SE073): 4 µg/mL
- Ceftriaxone MIC + Peptide ([11]; A. baumannii ABI005): 8 µg/mL
- Peptide MIC + Ceftriaxone ([11]; A. baumannii ABI005): 0.5 µg/mL
- Ceftriaxone MIC + Peptide ([11]; B. cepacia BC003): 4 µg/mL
- Peptide MIC + Ceftriaxone ([11]; B. cepacia BC003): 64 µg/mL
- Ceftriaxone MIC + Peptide ([11]; E. cloacae ECL014): 16 µg/mL
- Peptide MIC + Ceftriaxone ([11]; E. cloacae ECL014): 8 µg/mL
- Ceftriaxone MIC + Peptide ([11]; E. cloacae ECL015): 16 µg/mL
- Peptide MIC + Ceftriaxone ([11]; E. cloacae ECL015): 8 µg/mL
- Ceftriaxone MIC + Peptide ([11]; P. aeruginosa PA008): 0.125 µg/mL
- Peptide MIC + Ceftriaxone ([11]; P. aeruginosa PA008): 32 µg/mL
- Ceftriaxone MIC + Peptide ([11]; P. aeruginosa PA039): 16 µg/mL
- Peptide MIC + Ceftriaxone ([11]; P. aeruginosa PA039): 16 µg/mL
- Ceftriaxone MIC + Peptide ([11]; S. aureus SA025 MRSA): 0.125 µg/mL
- Peptide MIC + Ceftriaxone ([11]; S. aureus SA025 MRSA): 1 µg/mL
- Ceftriaxone MIC + Peptide ([11]; S. epidermidis SE012): 16 µg/mL
- Peptide MIC + Ceftriaxone ([11]; S. epidermidis SE012): 1 µg/mL
- Ceftriaxone MIC + Peptide ([11]; S. epidermidis SE073): 16 µg/mL
- Peptide MIC + Ceftriaxone ([11]; S. epidermidis SE073): 1 µg/mL
- FIC ([11]; A. baumannii ABI005): 0.56
- FIC ([11]; B. cepacia BC003): 0.50
- FIC ([11]; E. cloacae ECL014): 0.38
- FIC ([11]; E. cloacae ECL015): 0.50
- FIC ([11]; P. aeruginosa PA008): 0.50
- FIC ([11]; P. aeruginosa PA039): 0.50
- FIC ([11]; S. aureus SA025 MRSA): 0.52
- FIC ([11]; S. epidermidis SE012): 0.50
- FIC ([11]; S. epidermidis SE073): 0.38
- Peptide MIC + Ceftriaxone [12]: 32 µg/mL
- Peptide MIC Alone ([12]; Ceftriaxone section): 64 µg/mL
- Ceftriaxone MIC + Peptide ([13]; A. baumannii ABI005): 8 µg/mL
- Peptide MIC + Ceftriaxone ([13]; A. baumannii ABI005): 0.5 µg/mL
- Peptide MIC Alone ([13]; A. baumannii ABI005): 8 µg/mL
- Ceftriaxone MIC + Peptide ([13]; A. lwoffii ALW007): 4 µg/mL
- Peptide MIC + Ceftriaxone ([13]; A. lwoffii ALW007): 2 µg/mL
- Peptide MIC Alone ([13]; A. lwoffii ALW007): 4 µg/mL
- Ceftriaxone MIC + Peptide ([13]; B. cepacia BC003): 8 µg/mL
- Peptide MIC + Ceftriaxone ([13]; B. cepacia BC003): 32 µg/mL
- Peptide MIC Alone ([13]; B. cepacia BC003): >128 µg/mL
- Ceftriaxone MIC + Peptide ([13]; E. cloacae ECL014): 0.25 µg/mL
- Peptide MIC + Ceftriaxone ([13]; E. cloacae ECL014): 16 µg/mL
- Peptide MIC Alone ([13]; E. cloacae ECL014): 32 µg/mL
- Ceftriaxone MIC + Peptide ([13]; E. cloacae ECL015): 1 µg/mL
- Peptide MIC + Ceftriaxone ([13]; E. cloacae ECL015): 16 µg/mL
- Peptide MIC Alone ([13]; E. cloacae ECL015): 32 µg/mL
- FIC ([13]; A. baumannii ABI005): 0.56
- FIC ([13]; A. lwoffii ALW007): 0.75
- FIC ([13]; B. cepacia BC003): 0.63
- FIC ([13]; E. cloacae ECL014): 0.50
- FIC ([13]; E. cloacae ECL015): 0.52

Sequence: ILRRNPNNPNRRK [MBI 11B1CNW1]
- MIC ([1]; A. calcoaceticus strain AC002): 16 µg/mL
- MIC ([2]; E. cloacae strain ECL007): 64 µg/mL
- MIC ([3]; E. coli strain ECO005): 32 µg/mL
- MIC ([4]; E. faecalis strain EFS004): 8 µg/mL
- MIC ([5]; K. pneumoniae strain KP001): 32 µg/mL
- MIC ([6]; P. aeruginosa strain PA004): 64 µg/mL
- MIC ([7]; S. aureus strain SA014): 16 µg/mL
- MIC ([8]; S. epidermidis strain SE010): 8 µg/mL
- MIC ([9]; S. maltophilia strain SMA002): 32 µg/mL
- MIC ([10]; S. marcescens strain SMS003): >128 µg/mL
